From patent US6914045B2, “Glycopeptide antibiotics” (Wyeth Holdings Corporation, priority 2001, dated 2005)
Converted amounts (≈) assume the structure as drawn.

Tests used:
Test in all cases: in vitro antibacterial evaluation, MIC by broth dilution
Assay type in all cases: cell-based
Streptococcus sp. = settings: broth dilution, 18 hours at 35° C.
Outline: (§1)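 Broth dilution per NCCLS M7-A2 in Mueller-Hinton II medium, inoculum 5×10^5 CFU/mL, antibiotic range 64-0.06 μg/mL. MIC taken as lowest concentration inhibiting growth; Gram-positive panel includes recent clinical isolates resistant to methicillin, penicillin and/or vancomycin.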

Enterococcus sp. = settings: broth dilution, 18 hours at 35° C.
Outline: as §1

Staphylococcus sp. = settings: broth dilution, 18 hours at 35° C.
Outline: as §1

Escherichia coli = settings: 18 hours at 35° C.

Q: `CC(c1ccccc1)C1NC(=O)CNC(=O)C(CO)NC(=O)C(C(O)C2CN(c3ncccn3)C(=N)N2C2OC(CO)C(O)C(O)C2O)NC(=O)C(C(O)C2CNC(=Nc3ncccn3)N2)NC(=O)C(Cc2ccc(OC3OC(CO)C(OC4OC5COC6(OC5C(O)C4O)C4CC5CC(C4)CC6C5)C(O)C3O)cc2)NC1=O` (stereo not drawn) [Example 228] was tested. Which “MIC Streptococcus agalactiae (GC 4564)” value (Streptococcus sp.) did it give?
A: The value was 16 µg/mL (≈ 10.1 µM).

Q: What about the “MIC Streptococcus pneumoniae (ATCC 6301)” value (Streptococcus sp.) of the same compound?
A: Its value is 8 µg/mL (≈ 5.05 µM).

Q: And the “MIC Streptococcus pneumoniae (GC 1894)” value (Streptococcus sp.)?
A: Its value is 8 µg/mL (≈ 5.05 µM).

Q: And the “MIC Streptococcus pneumoniae (GC 4565)” value (Streptococcus sp.)?
A: The value was 8 µg/mL (≈ 5.05 µM).

Q: And the “MIC Streptococcus pyogenes (GC 4563)” value (Streptococcus sp.)?
A: Its value is 8 µg/mL (≈ 5.05 µM).

Q: What about the “MIC Streptococcus pneumoniae (ATCC 6301)” value (Streptococcus sp.; inoculum 5×10^5 CFU/mL, strain ATCC 6301) of the same compound?
A: The value was 8 µg/mL (≈ 5.05 µM).

Q: What about the “MIC Streptococcus pneumoniae (GC 1894)” value (Streptococcus sp.; inoculum 5×10^5 CFU/mL, strain GC 1894) of the same compound?
A: The value was 8 µg/mL (≈ 5.05 µM).

Q: And the “MIC Streptococcus pyogenes (GC 4563)” value (Streptococcus sp.; inoculum 5×10^5 CFU/mL, strain GC 4563)?
A: The value was 8 µg/mL (≈ 5.05 µM).

Q: And the “MIC Streptococcus agalactiae (GC 4564)” value (Streptococcus sp.; inoculum 5×10^5 CFU/mL, strain GC 4564)?
A: Its value is 16 µg/mL (≈ 10.1 µM).

Q: What about the “MIC Streptococcus pneumoniae (GC 4565)” value (Streptococcus sp.; inoculum 5×10^5 CFU/mL, strain GC 4565) of the same compound?
A: Its value is 8 µg/mL (≈ 5.05 µM).

Q: What about the “MIC Enterococcus avium (GC 4558)” value (Enterococcus sp.) of the same compound?
A: Its value is 8 µg/mL (≈ 5.05 µM).

Q: And the “MIC Enterococcus faecalis (ATCC 29212)” value (Enterococcus sp.)?
A: Its value is 32 µg/mL (≈ 20.2 µM).

Q: What about the “MIC Enterococcus faecalis (GC 2242)” value (Enterococcus sp.) of the same compound?
A: The value was 32 µg/mL (≈ 20.2 µM).

Q: And the “MIC Enterococcus faecalis (GC 2691)” value (Enterococcus sp.)?
A: Its value is 32 µg/mL (≈ 20.2 µM).

Q: And the “MIC Enterococcus faecalis (GC 3059)” value (Enterococcus sp.)?
A: Its value is 32 µg/mL (≈ 20.2 µM).

Q: And the “MIC Enterococcus faecalis (GC 4552)” value (Enterococcus sp.)?
A: The value was 32 µg/mL (≈ 20.2 µM).

Q: What about the “MIC Enterococcus faecalis (GC 4553)” value (Enterococcus sp.) of the same compound?
A: The value was 16 µg/mL (≈ 10.1 µM).

Q: And the “MIC Enterococcus faecalis (GC 4554)” value (Enterococcus sp.)?
A: The value was 32 µg/mL (≈ 20.2 µM).

Q: And the “MIC Enterococcus faecalis (GC 6189)” value (Enterococcus sp.)?
A: The value was 32 µg/mL (≈ 20.2 µM).

Q: What about the “MIC Enterococcus faecium (GC 2243)” value (Enterococcus sp.) of the same compound?
A: The value was 16 µg/mL (≈ 10.1 µM).

Q: And the “MIC Enterococcus faecium (GC 4556)” value (Enterococcus sp.)?
A: Its value is 32 µg/mL (≈ 20.2 µM).

Q: What about the “MIC Enterococcus faecium (GC 4557)” value (Enterococcus sp.) of the same compound?
A: Its value is 16 µg/mL (≈ 10.1 µM).

Q: What about the “MIC Enterococcus faecalis (ATCC 29212)” value (Enterococcus sp.; inoculum 5×10^5 CFU/mL, strain ATCC 29212) of the same compound?
A: Its value is 32 µg/mL (≈ 20.2 µM).

Q: And the “MIC Enterococcus faecalis (GC 2242)” value (Enterococcus sp.; inoculum 5×10^5 CFU/mL, strain GC 2242)?
A: Its value is 32 µg/mL (≈ 20.2 µM).

Q: And the “MIC Enterococcus faecium (GC 2243)” value (Enterococcus sp.; inoculum 5×10^5 CFU/mL, strain GC 2243)?
A: Its value is 16 µg/mL (≈ 10.1 µM).

Q: And the “MIC Enterococcus faecalis (GC 2691)” value (Enterococcus sp.; inoculum 5×10^5 CFU/mL, strain GC 2691)?
A: The value was 32 µg/mL (≈ 20.2 µM).

Q: And the “MIC Enterococcus faecalis (GC 3059)” value (Enterococcus sp.; inoculum 5×10^5 CFU/mL, strain GC 3059)?
A: The value was 32 µg/mL (≈ 20.2 µM).

Q: And the “MIC Enterococcus faecalis (GC 4552)” value (Enterococcus sp.; inoculum 5×10^5 CFU/mL, strain GC 4552)?
A: Its value is 32 µg/mL (≈ 20.2 µM).

Q: What about the “MIC Enterococcus faecalis (GC 4553)” value (Enterococcus sp.; inoculum 5×10^5 CFU/mL, strain GC 4553) of the same compound?
A: Its value is 16 µg/mL (≈ 10.1 µM).

Q: What about the “MIC Enterococcus faecalis (GC 4554)” value (Enterococcus sp.; inoculum 5×10^5 CFU/mL, strain GC 4554) of the same compound?
A: Its value is 32 µg/mL (≈ 20.2 µM).

Q: What about the “MIC Enterococcus faecium (GC 4556)” value (Enterococcus sp.; inoculum 5×10^5 CFU/mL, strain GC 4556) of the same compound?
A: The value was 32 µg/mL (≈ 20.2 µM).

Q: What about the “MIC Enterococcus faecium (GC 4557)” value (Enterococcus sp.; inoculum 5×10^5 CFU/mL, strain GC 4557) of the same compound?
A: The value was 16 µg/mL (≈ 10.1 µM).

Q: What about the “MIC Enterococcus avium (GC 4558)” value (Enterococcus sp.; inoculum 5×10^5 CFU/mL, strain GC 4558) of the same compound?
A: Its value is 8 µg/mL (≈ 5.05 µM).

Q: And the “MIC Enterococcus faecalis (GC 6189)” value (Enterococcus sp.; inoculum 5×10^5 CFU/mL, strain GC 6189)?
A: Its value is 32 µg/mL (≈ 20.2 µM).

Q: What about the “MIC Coagulase Negative Staphylococcus (GC 4547)” value (Staphylococcus sp.) of the same compound?
A: Its value is 16 µg/mL (≈ 10.1 µM).

Q: And the “MIC Coagulase Negative Staphylococcus (GC 4548)” value (Staphylococcus sp.)?
A: Its value is 16 µg/mL (≈ 10.1 µM).

Q: What about the “MIC Coagulase Negative Staphylococcus (GC 4549)” value (Staphylococcus sp.) of the same compound?
A: Its value is 16 µg/mL (≈ 10.1 µM).

Q: And the “MIC Coagulase Negative Staphylococcus (GC 4551)” value (Staphylococcus sp.)?
A: The value was 16 µg/mL (≈ 10.1 µM).

Q: What about the “MIC Staphylococcus aureus-SMITH (GC 4543)” value (Staphylococcus sp.) of the same compound?
A: Its value is 32 µg/mL (≈ 20.2 µM).

Q: And the “MIC Staphylococcus haemolyticus (GC 4546)” value (Staphylococcus sp.)?
A: Its value is 16 µg/mL (≈ 10.1 µM).

Q: And the “MIC Staphylococcus aureus-SMITH (GC 4543)” value (Staphylococcus sp.; strain GC 4543)?
A: Its value is 32 µg/mL (≈ 20.2 µM).

Q: And the “MIC Staphylococcus haemolyticus (GC 4546)” value (Staphylococcus sp.; strain GC 4546)?
A: Its value is 16 µg/mL (≈ 10.1 µM).

Q: What about the “MIC Coagulase Negative Staphylococcus (GC 4547)” value (Staphylococcus sp.; strain GC 4547) of the same compound?
A: Its value is 16 µg/mL (≈ 10.1 µM).

Q: What about the “MIC Coagulase Negative Staphylococcus (GC 4548)” value (Staphylococcus sp.; strain GC 4548) of the same compound?
A: Its value is 16 µg/mL (≈ 10.1 µM).

Q: What about the “MIC Coagulase Negative Staphylococcus (GC 4549)” value (Staphylococcus sp.; strain GC 4549) of the same compound?
A: Its value is 16 µg/mL (≈ 10.1 µM).

Q: And the “MIC Coagulase Negative Staphylococcus (GC 4551)” value (Staphylococcus sp.; strain GC 4551)?
A: Its value is 16 µg/mL (≈ 10.1 µM).

Q: And the “MIC Staphylococcus aureus (ATCC 29213)” value (Staphylococcus sp.; strain ATCC 29213)?
A: The value was 32 µg/mL (≈ 20.2 µM).

Q: What about the “MIC Staphylococcus aureus (GC 1131)” value (Staphylococcus sp.; strain GC 1131) of the same compound?
A: The value was 32 µg/mL (≈ 20.2 µM).

Q: And the “MIC Staphylococcus aureus (GC 3051)” value (Staphylococcus sp.; strain GC 3051)?
A: Its value is 32 µg/mL (≈ 20.2 µM).

Q: And the “MIC Staphylococcus aureus (GC 3053)” value (Staphylococcus sp.; strain GC 3053)?
A: The value was 32 µg/mL (≈ 20.2 µM).

Q: What about the “MIC Staphylococcus aureus (GC 4541)” value (Staphylococcus sp.; strain GC 4541) of the same compound?
A: The value was 32 µg/mL (≈ 20.2 µM).

Q: And the “MIC Staphylococcus aureus (GC 4542)” value (Staphylococcus sp.; strain GC 4542)?
A: Its value is 32 µg/mL (≈ 20.2 µM).

Q: And the “MIC Staphylococcus aureus (GC 4544)” value (Staphylococcus sp.; strain GC 4544)?
A: The value was 32 µg/mL (≈ 20.2 µM).

Q: And the “MIC Staphylococcus aureus (GC 4545)” value (Staphylococcus sp.; strain GC 4545)?
A: The value was 32 µg/mL (≈ 20.2 µM).

Q: What about the “MIC Escherichia coli (ATCC 25922)” value (Escherichia coli) of the same compound?
A: Its value is greater than 64 µg/mL.

Q: What about the “MIC Escherichia coli (GC 4559)” value (Escherichia coli) of the same compound?
A: Its value is greater than 64 µg/mL.

Q: What about the “MIC Escherichia coli (GC 4560)” value (Escherichia coli) of the same compound?
A: Its value is 16 µg/mL (≈ 10.1 µM).
